Experimental data published in PubChem BioAssay (NCI).
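Values below derive from 48-hour exposures of cells grown in 96-well plates, with endpoints linearly interpolated between the two concentrations bracketing the appropriate inhibition level. GI50: concentration for 50% inhibition of growth. TGI: concentration producing complete growth inhibition.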

Experiments:
Assay in all cases: growth of human tumour cells (NCI), 48 h
[1] = system: CCRF-CEM leukemia
[2] = system: EKVX NSCLC
[3] = system: HCT-116 colon
[4] = system: HCT-15 colon
[5] = system: HT29 colon
[6] = system: K-562 leukemia
[7] = system: RXF 393 renal
[8] = system: SF-268 CNS
[9] = system: SF-539 CNS
[10] = system: SNB-19 CNS

Structure (SMILES): COc1cc(C(=O)/C=C/c2c(C)n([O-])c3ccc(C)cc3[n+]2=O)cc(OC)c1OC
- GI50 [1]: 2.83 µM
- TGI [1]: > 100 µM
- GI50 [2]: 19.4 µM
- TGI [2]: > 100 µM
- GI50 [3]: 1.54 µM
- TGI [3]: 2.95 µM
- GI50 [4]: 1.8 µM
- TGI [4]: 4.48 µM
- GI50 [5]: 4.84 µM
- TGI [5]: 16.5 µM
- GI50 [6]: 2.8 µM
- TGI [6]: > 24.7 µM
- GI50 [7]: 1.89 µM
- TGI [7]: 3.91 µM
- GI50 [8]: 12.3 µM
- TGI [8]: 29.5 µM
- GI50 [9]: 2.84 µM
- TGI [9]: 7.12 µM
- GI50 [10]: 20.8 µM
- TGI [10]: 46 µM

Structure (SMILES): COc1ccc(OC)c(/C=N/NC(=O)Cc2csc3nc(-c4ccc(Br)cc4)cn23)c1
- GI50 [1]: 9.59 µM
- TGI [1]: > 100 µM
- GI50 [2]: 17.1 µM
- TGI [2]: 57.6 µM
- GI50 [3]: 4.57 µM
- TGI [3]: 15.9 µM
- GI50 [4]: 7.42 µM
- TGI [4]: 65.1 µM
- GI50 [5]: 16.4 µM
- TGI [5]: > 100 µM
- GI50 [6]: 2.94 µM
- TGI [6]: 6.94 µM
- GI50 [7]: 19 µM
- TGI [7]: 67.4 µM
- GI50 [8]: > 100 µM
- TGI [8]: > 100 µM
- GI50 [9]: 11.2 µM
- TGI [9]: 24.4 µM
- GI50 [10]: 31.4 µM
- TGI [10]: > 100 µM

Structure (SMILES): COC(=O)CCC(=O)C(=O)OC
- GI50 [1]: 17800 µM
- TGI [1]: 85500 µM
- GI50 [2]: 20600 µM
- GI50 [3]: 30600 µM
- GI50 [4]: 31500 µM
- GI50 [5]: 24200 µM
- TGI [5]: 85900 µM
- GI50 [6]: 33500 µM
- GI50 [7]: 30300 µM
- TGI [7]: 95100 µM
- GI50 [8]: 26400 µM
- GI50 [9]: 24500 µM
- GI50 [10]: 34200 µM

Structure (SMILES): CCCCC[C@H](O)/C=C/[C@@H]1[C@@H](C/C=C\CCCC(=O)O)[C@@H](O)C[C@H]1O
- GI50 [1]: > 100 µM
- TGI [1]: > 100 µM
- GI50 [2]: > 100 µM
- TGI [2]: > 100 µM
- GI50 [3]: > 100 µM
- TGI [3]: > 100 µM
- GI50 [4]: > 100 µM
- TGI [4]: > 100 µM
- GI50 [5]: > 100 µM
- TGI [5]: > 100 µM
- GI50 [6]: > 100 µM
- TGI [6]: > 100 µM
- GI50 [7]: > 100 µM
- TGI [7]: > 100 µM
- GI50 [8]: > 100 µM
- TGI [8]: > 100 µM
- GI50 [9]: > 100 µM
- TGI [9]: > 100 µM
- GI50 [10]: > 100 µM
- TGI [10]: > 100 µM

Structure (SMILES): CCc1nc(N)nc(N)c1-c1ccc(NCCN)c([N+](=O)[O-])c1
- TGI [1]: > 72.4 µM
- TGI [2]: > 100 µM
- TGI [3]: > 100 µM
- TGI [4]: > 100 µM
- TGI [5]: > 100 µM
- TGI [6]: > 100 µM
- TGI [7]: > 100 µM
- TGI [8]: > 76.3 µM
- TGI [9]: > 100 µM
- TGI [10]: > 100 µM

Structure (SMILES): CC(C)/C=C1\CCC(CN2CCCC2)C1=O (stereo not drawn)
- TGI [1]: 17.3 µM
- TGI [2]: 40 µM
- TGI [3]: 20.9 µM
- TGI [4]: 18.3 µM
- TGI [5]: 25.6 µM
- TGI [6]: 11.9 µM
- TGI [7]: 29.7 µM
- TGI [8]: 43.6 µM
- TGI [9]: 35.6 µM
- TGI [10]: > 64.2 µM

Structure (SMILES): CS/C(=N\C(=S)N(C)C)N(c1ccccc1)c1nc(=[N+](C)C)ss1
- TGI [1]: 8.45 µM
- TGI [2]: 49.3 µM
- TGI [3]: 21.7 µM
- TGI [4]: > 100 µM
- TGI [5]: 11.6 µM
- TGI [6]: 12.5 µM
- TGI [7]: 37.4 µM
- TGI [8]: 26.4 µM
- TGI [9]: 25.5 µM
- TGI [10]: > 100 µM

Structure (SMILES): Cc1ccccc1NC(=O)C(=O)C(C#N)c1ccc(Cl)cc1 (stereo not drawn)
- TGI [1]: > 100 µM
- TGI [2]: > 100 µM
- TGI [3]: > 100 µM
- TGI [4]: 37.1 µM
- TGI [5]: > 100 µM
- TGI [6]: > 100 µM
- TGI [7]: > 100 µM
- TGI [8]: > 100 µM
- TGI [9]: 83.5 µM
- TGI [10]: > 100 µM

Structure (SMILES): O=C(Nc1ccc(Cl)c(Cl)c1)c1cccc(NC2=C(Cl)C(=O)N(Cc3ccccc3)C2=O)c1
- GI50 [1]: 23.4 µM
- TGI [1]: > 100 µM
- GI50 [2]: 20.2 µM
- TGI [2]: 64.5 µM
- GI50 [3]: 27.8 µM
- TGI [3]: > 100 µM
- GI50 [4]: 36.6 µM
- TGI [4]: > 100 µM
- GI50 [5]: 59.6 µM
- TGI [5]: > 100 µM
- GI50 [6]: 11.5 µM
- TGI [6]: > 100 µM
- GI50 [7]: 25.1 µM
- TGI [7]: 65.6 µM
- GI50 [8]: 34.9 µM
- TGI [8]: > 100 µM
- GI50 [9]: 7.75 µM
- TGI [9]: 38.2 µM
- GI50 [10]: > 100 µM
- TGI [10]: > 100 µM

Structure (SMILES): Cc1cc2nc(C(C)C(=O)c3ccc(Cl)cc3)c(=O)[nH]c2cc1C (stereo not drawn)
- TGI [1]: > 100 µM
- TGI [2]: 64.3 µM
- TGI [3]: > 100 µM
- TGI [4]: > 100 µM
- TGI [5]: 66.4 µM
- TGI [6]: > 100 µM
- TGI [7]: > 100 µM
- TGI [8]: > 100 µM
- TGI [9]: 93.1 µM
- TGI [10]: > 100 µM

Structure (SMILES): O=[N+]([O-])c1ccc(S(=O)(=O)Cc2ccccc2)c([N+](=O)[O-])c1
- TGI [1]: 0.498 µM
- TGI [2]: 4.36 µM
- TGI [3]: 3.51 µM
- TGI [4]: 3.94 µM
- TGI [5]: 5.55 µM
- TGI [6]: > 100 µM
- TGI [7]: 3.4 µM
- TGI [8]: 14.5 µM
- TGI [9]: 3.8 µM
- TGI [10]: 39.6 µM

Structure (SMILES): CCN(CC)CCOCC[C@H]1CC[C@H]2[C@@H]3[C@H](C)Cc4cc(OS(N)(=O)=O)ccc4[C@H]3CC[C@]12C
- GI50 [1]: 1.14 µM
- TGI [1]: 4.34 µM
- GI50 [2]: 0.765 µM
- TGI [2]: 3.65 µM
- GI50 [3]: 0.696 µM
- TGI [3]: 2.08 µM
- GI50 [4]: 1.66 µM
- TGI [4]: 4.72 µM
- GI50 [5]: 0.244 µM
- TGI [5]: 1.03 µM
- GI50 [6]: 0.547 µM
- TGI [6]: 2.26 µM
- GI50 [7]: 1.67 µM
- TGI [7]: 4.12 µM
- GI50 [8]: 1.31 µM
- TGI [8]: 2.66 µM
- GI50 [9]: 0.654 µM
- TGI [9]: 1.87 µM
- GI50 [10]: 1.71 µM
- TGI [10]: 3.17 µM

Structure (SMILES): COc1ccc2oc(=O)cc(C(c3ccc[nH]3)c3ccc[nH]3)c2c1
- GI50 [1]: 0.105 µM
- TGI [1]: 29.9 µM
- GI50 [2]: 0.278 µM
- TGI [2]: 21.5 µM
- GI50 [3]: 0.328 µM
- TGI [3]: 10.6 µM
- GI50 [4]: 0.1 µM
- TGI [4]: 11.5 µM
- GI50 [5]: 0.104 µM
- TGI [5]: 0.659 µM
- GI50 [6]: 0.118 µM
- TGI [6]: 20.8 µM
- GI50 [7]: 0.0902 µM
- TGI [7]: 0.44 µM
- GI50 [8]: 0.129 µM
- TGI [8]: 16.3 µM
- GI50 [9]: 0.0937 µM
- TGI [9]: 0.451 µM
- GI50 [10]: 0.132 µM
- TGI [10]: 16.4 µM

Structure (SMILES): COc1cc2c(cc1O)CC[C@@H]1[C@@H]2CC[C@]2(C)[C@@H](NCCN(C)C)CC[C@@H]12
- GI50 [1]: 0.156 µM
- TGI [1]: 0.612 µM
- GI50 [2]: 0.341 µM
- TGI [2]: 0.804 µM
- GI50 [3]: 0.139 µM
- TGI [3]: 0.522 µM
- GI50 [4]: 0.111 µM
- TGI [4]: 0.454 µM
- GI50 [5]: 0.101 µM
- TGI [5]: 0.393 µM
- GI50 [6]: 0.0886 µM
- TGI [6]: 0.395 µM
- GI50 [7]: 0.118 µM
- TGI [7]: 0.48 µM
- GI50 [8]: 0.267 µM
- TGI [8]: 0.753 µM
- GI50 [9]: 0.083 µM
- TGI [9]: 0.264 µM
- GI50 [10]: 0.4 µM
- TGI [10]: 0.966 µM

Structure (SMILES): COc1c(C=O)c2c(c(OC)c1OC)-c1ccc(OC)c(=O)cc1[C@@H](NC(C)=O)CC2
- TGI [1]: > 100 µM
- TGI [2]: > 100 µM
- TGI [3]: 1.05 µM
- TGI [4]: > 100 µM
- TGI [5]: > 8.89 µM
- TGI [6]: > 100 µM
- TGI [7]: > 56.3 µM
- TGI [8]: 30.3 µM
- TGI [9]: 0.0644 µM
- TGI [10]: > 92.8 µM

Structure (SMILES): CCOC(=O)Nc1cc2nnc(-c3ccccc3)nc2c(N)n1
- TGI [1]: > 100 µM
- TGI [2]: > 100 µM
- TGI [3]: 38.7 µM
- TGI [4]: > 100 µM
- TGI [5]: 25.7 µM
- TGI [6]: > 100 µM
- TGI [7]: 53.5 µM
- TGI [8]: > 100 µM
- TGI [9]: 61.9 µM
- TGI [10]: > 100 µM
